Measurements reported in patent publication US12382955B2, “Peroxyformic acid compositions for membrane filtration cleaning in energy services” (priority 2016, dated 2025).

Assays:
oil and gas biofilm = assay: Biofilm percent reductions (Example 5)
[1] = Membrane compatibility, simulated exposure soak, clean water flux and salt rejection (Example 4); settings: Koch HRX, PFA 300 ppm, 77 F
Description: The effects of PFA on reverse osmosis members which contain a polyamide structure in comparison with known control chemicals were tested. Three different membranes were tested including Koch HRX, Hydranautics CPA5 and Hydranautics ESPA2+. Membranes were soaked in duplicate, in chemistries according to Table 4.
Membranes were then conditioned in Ultrasil 110 at a pH of 11 for 90 minutes at 50° C., followed by a rinse in DI water.
Each of the chemistries, with the exception of PFA was refreshed daily. PFA was refreshed hourly. After the simulated exposure the membranes are rinsed with DI water and placed on the Flat Sheet Membrane skid (Model M20). The membranes were rinsed with DI water for 24 hours at standard UF pressure and temperature. Once 24 hours was completed the membranes were subjected to alkaline conditioning step until solution pH is 11. 15.14 grams of NaCl was added to the recirculating water (2000 ppm NaCl) and the system was allowed to continue circulating. The conductivity of each permeate tube and feed was then measured and recorded and shown as percent rejection. The percent rejection was determined by (conductivity of the feed−conductivity of the permeate)/(conductivity of the feed).

SMILES | Biofilm percent reductions, ATP (oil and gas biofilm; 250 ppm) [%] | Biofilm percent reductions, Total biofilm (oil and gas biofilm; 250 ppm) [%] | inhibition at 250 ppm (oil and gas biofilm; read-out: Biofilm percent reductions, Viable biofilm) [%] | Water Flux (LMH) PFA 1 YR ([1]; simulated 1 year, 78 hr soak) [LMH] | Water Flux (LMH) PFA 3 YR ([1]; simulated 3 years, 234 hr soak) [LMH] | Biofilm percent reductions, ATP (oil and gas biofilm; 75 ppm active) [%] | Biofilm percent reductions, Total biofilm (oil and gas biofilm; 75 ppm active) [%] | Biofilm percent reductions, Viable biofilm (oil and gas biofilm; 75 ppm active) [%]
O=CCCCC=O [Glutaraldehyde, reference compound] | 94 | 58 | 81 |  |  |  |  | 
O=COO [PFA, peroxyformic acid] |  |  |  | 65.40 | 75.84 | 99 | 85 | 96
